These are literature values, as cited in patent publication US20050215455A1, “Surfactants in powdered form that can be used in tablets or gelatin capsules; preparation process and compositions containing them” (priority 2004, published 2005).

≈ marks a conversion by molar mass, not a printed value.

Regarding `Cn1c(=O)c2[nH]cnc2n(C)c1=O` [Theophylline], the Solubility in water is 8 µg/mL (≈ 44.4 µM).
